In patent US20140273006A1, “METHOD OF THERAPY SELECTION FOR PATIENTS WITH CANCER” (NESTEC S.A., priority 2011, published 2014):

Columns and labels:
PI3K = experiment: CEER profile of FNA sample of Patient #3 after PI3K inhibitor treatment; type: in vivo, human; conditions: Patient #3, FNA sample after treatment; confirmed by CT scan
Procedure: In a retrospective study, a series of samples taken from patients with cancer were evaluated to determine if pathway profiling using the CEER assay is predictive of responsiveness to PI3K treatment. Samples analyzed included those from patients on a therapy time course, e.g., prior to receiving therapy, after initiating therapy, and during the course of therapy.
Following treatment with the PI3K inhibitor drug BAY806946, another sample was taken and analyzed. […] This finding was confirmed by CT scan.

H1975 cells = experiment: CEER pathway profiling of H1975 cells after PI3K inhibitor, MEK inhibitor or combination treatment; type: cell-based, human; conditions: for levels of activated PI3K: H1975 cells treated with either PI3K inhibitor, MEK inhibitor, or combinations; for levels of other activated proteins (p-MEK, p-ERK, p-AKT, p-PRAS40, p-70S6K, and p-RPS6): H1975 cells, in response to treatment
Procedure: (§1) In one particular embodiment, the proximity assay (e.g., CEER) for detecting the activation level or status of an analyte of interest comprises: • (i) incubating the cellular extract with one or a plurality of dilution series of capture antibodies to form a plurality of captured analytes; • (ii) incubating the plurality of captured analytes with detection antibodies comprising one or a plurality of activation state-independent antibodies and one or a plurality of activation state-dependent antibodies specific for the corresponding analytes to form a plurality of detectable captured analytes, • wherein the activation state-independent antibodies are labeled with a facilitating moiety, the activation state-dependent antibodies are labeled with a first member of a signal amplification pair, and the facilitating moiety generates an oxidizing agent which channels to and reacts with the first member of the signal amplification pair; • (iii) incubating the plurality of detectable captured analytes with a second member of the signal amplification pair to generate an amplified signal; and • (iv) detecting the amplified signal generated from the first and second members of the signal amplification pair.
The levels of other downstream signaling components of the pathway were measured, including HER1, HER2, cMET, PI3K, AKT, ERK, PTEN, MEK, p70S6K, PRAS40, RPS6 and PDK. Cell lines derived from non-small cell lung cancer such as NCI-H460, NCI-H647, NCI-H1155, NCI-1299, NCI-1975, NCI-H2228, and NCI-H661 were also used. The different therapies tested included a PI3K inhibitor alone at low or high dose, a MEK inhibitor alone at low or high dose, and a PI3K inhibitor plus a MEK inhibitor together at low dose or high dose. The cells were assayed at either 4 hours after treatment or 24 hours (see, * in FIGS. 6-10) after treatment.

cell line H460 = experiment: CEER pathway profiling of cell line H460 after PI3K inhibitor, MEK inhibitor or combination treatment; type: cell-based, human; conditions: PI3K inhibitor alone or in combination with a MEK inhibitor, day 8, 9, 12, 13, 4 hours or 24 hours of drug exposure
Procedure: as §1
The levels of other downstream signaling components of the pathway were measured, including HER1, HER2, cMET, PI3K, AKT, ERK, PTEN, MEK, p70S6K, PRAS40, RPS6 and PDK. […]

PI3K-related pathways = experiment: CEER-based analysis of BCA clinical samples from patients treated with BYL719; type: in vivo, human
Procedure: CEER analysis includes normalizing the measured expression/activation levels of signaling transduction analytes against standard controls using statistical algorithms. In particular, Relative Fluorescence Unit (RFU) values are converted to Computed Units (CU), a standard functional unit of measure based on cell line controls with known levels of analyte expression. For each slide of the CEER assay, a standard curve of serial diluted cell lysate is prepared for a particular analyte-positive cell line (e.g., HER1-positive cell line is MDA-MB-468; HER2-positive cell line is SKBr3). Thus, normalized levels of each particular analyte and the degree of phosphorylation in each sample can be obtained against standard cell lines.
This example illustrates a CEER-based analysis of BCA clinical samples from patients treated with a PI3K inhibitor, BYL719 (Novartis). In particular, signaling pathway profiles from individual patients are shown to shift during the course of BYL719 treatment. Therefore, CEER-based analysis of PI3K-related pathways allows for responsive, individualized management of BYL719 treatment to improve clinical outcomes. Oncogenic receptor tyrosine kinases (HER1, HER2, HER3, cMET, IGF-1R, and cKIT) were quantified, as well as PI3K and other tyrosine kinase signaling cascade components including SHC, AKT, ERK, MEK, RSK, pRAS 40, RPS6, P70S6K, and PTEN. Levels of total protein and activated protein were measured.

[1] = tested on: cell lines with inactive PTEN; experiment: IC50 of the PI3K inhibitor in cell lines by PTEN status (FIG. 14); type: cell-based, human; conditions: cell lines with inactive PTEN (point mutation or null mutation)
Procedure: (§2) The relationship between the IC50 of the PI3K inhibitor drug (GDC0941) and activated PI3K levels was analyzed in several cell lines. It was determined that cell lines (e.g., H1651 or H2087) with PI3K activation have low IC50. H1651 cells carry no known genetic mutations but have high EGFR expression. H2087 has NRAS and BRAF mutations. Cell lines (e.g., Calu-6) with two more alterations such as multiple mutations (e.g., MAPK mutations) and PI3K activation had high IC50 values. Thus, phospho-PI3K can be an indicator or predictor of sensitivity to PI3K inhibitors.

Calu-6 = experiment: IC50 of the PI3K inhibitor drug (GDC0941) versus activated PI3K levels, Calu-6; type: cell-based, human; conditions: Calu-6, two more alterations (multiple mutations and PI3K activation)
From the text: (§3) FIG. 13 illustrates that the CEER assay can be used to calculate the IC50 of an anti-cancer drug relative to the level of activated PI3K and other downstream components of the HER1/HER2/cMET pathway. […] In some cancer cells inhibition of PI3K activation corresponds to inhibition of activation of downstream proteins. In addition the extent of the inhibition is specific to the cell line and the inhibitor treatment.
as §2

H2087 = experiment: IC50 of the PI3K inhibitor drug (GDC0941) versus activated PI3K levels, H2087; type: cell-based, human; conditions: H2087, cell line with PI3K activation
From the text: as §3, §2

H1651 = experiment: IC50 of the PI3K inhibitor drug (GDC0941) versus activated PI3K levels, H1651; type: cell-based, human; conditions: H1651, cell line with PI3K activation
From the text: as §3, §2

[2] = tested on: Stage III triple negative breast cancer; experiment: Clinical response of patients with triple negative breast cancer to combination therapy; type: in vivo, human; conditions: Patient #4; combination therapy of Herceptin and Lapatinib
From the text: Patient #4 represents a patient diagnosed with Stage III triple negative breast cancer (e.g., ER-, PR-, HER2-). The patient underwent radical mastectomy.
Patient #5 represents a patient diagnosed with Stage III triple negative breast cancer (e.g., ER-, PR-, HER2-). The patient underwent radical mastectomy.

[3] = tested on: PI3K, HER2 and IGF1R activation; experiment: CEER pathway profile of Patient #5 samples before and after treatment; type: in vivo, human; conditions: Patient #5, after treatment vs baseline
From the text: The samples were cerebrospinal fluid (CSF), fine needle aspirate (FNA) and a biopsy.

In the case of `COc1c(OCCCN2CCOCC2)ccc2c1N=C(NC(=O)c1cnc(N)nc1)N1CCN=C21` [BAY806946], the “PI3K driven cell proliferation” value (PI3K) is reported as “successfully inhibited”.

`COc1c(OCCCN2CCOCC2)ccc2c1N=C(NC(=O)c1cnc(N)nc1)N1CCN=C21.Cl.Cl` [BAY841236] was tested, and the “levels of activated PI3K” value (H1975 cells) was “relatively similar”, the “levels of other activated proteins (p-MEK, p-ERK, p-AKT, p-PRAS40, p-70S6K, and p-RPS6)” value (H1975 cells) was “greatly lower” and the “activated proteins of the HER1/HER2/cMET pathway (p-PI3K, p-AKT, p-PRAS40, p-70S6K, and p-RPS6)” value (cell line H460) was “downregulated”.

`COc1cc(F)c(F)c(Nc2ccc(I)cc2F)c1NS(=O)(=O)C1(C[C@H](O)CO)CC1` [BAY869766] was tested, and the “levels of activated PI3K” value (H1975 cells) was “relatively similar” and the “levels of other activated proteins (p-MEK, p-ERK, p-AKT, p-PRAS40, p-70S6K, and p-RPS6)” value (H1975 cells) was “greatly lower”.

With `Cc1nc(NC(=O)N2CCC[C@H]2C(N)=O)sc1-c1ccnc(C(C)(C)C(F)(F)F)c1` [BYL719] the “level of activated HER3” value (PI3K-related pathways; Patient 1, Day 8 of treatment) was “increased”, the “p-AKT, p-pPRAS, p-P70S6, and p-RPS6” value (PI3K-related pathways; Patient 1, Day 8 of treatment) was “downregulation” and the “total HER3 expression” value (PI3K-related pathways; Patient 1, Day 8 of treatment) was “increased”. For the same compound, the “HER3 expression and activation” value (PI3K-related pathways; Patient 1, Day 28 of treatment) was “higher than at Day 8”, the “p-AKT, p-PRAS, p-P70S6 and p-RPS6 levels” value (PI3K-related pathways; Patient 1, Day 28 of treatment) was “higher than at Day 8” and the “activation of PRAS40” value (PI3K-related pathways; Patient 1, course of treatment) was “initial decrease in activation of PRAS40 was observed, followed by an increase”. The “activation of AKT” value (PI3K-related pathways; Patient 1, upon treatment) was “decreased”, the “activation of HER3, ERK, MEK, and RSK” value (PI3K-related pathways; Patient 1, upon treatment) was “increased” and the “p-AKT and p-PRAS” value (PI3K-related pathways; Patient 2, Day 8 of treatment) was “downregulated”. The “p-MEK, p-ERK, and p-RSK” value (PI3K-related pathways; Patient 2, Day 8 of treatment) was “upregulated”, the “p-AKT, p-PRAS, p-MEK, p-ERK, and p-RSK” value (PI3K-related pathways; Patient 2, Day 28) was “down-regulated” and the “activation of ERK, MEK, and RSK” value (PI3K-related pathways; Patient 2, course of treatment) was “initial increase, followed by a decrease”. For the same compound, the “activation of AKT and PRAS40” value (PI3K-related pathways; Patient 2, upon treatment) was “decrease”, the “activated HER1” value (PI3K-related pathways; Patient 3, Day 8) was “upregulated” and the “activated HER2, HER3 and cMET” value (PI3K-related pathways; Patient 3, Day 8) was “down-regulated”. For the same compound, the “levels of p-AKT, p-PRAS, p-MEK, p-ERK and p-RSK” value (PI3K-related pathways; Patient 3, Day 8) was “downregulated”, the RTK activation (PI3K-related pathways; Patient 3, upon treatment) was “general decrease” and the PRAS40 activation (PI3K-related pathways; Patient 4) was “decrease”. The “p-AKT, p-PRAS, p-MEK, p-ERK, and p-RSK” value (PI3K-related pathways; Patient 4, Day 8) was “downregulation”, the PRAS40 activation (PI3K-related pathways; Patient 5) was “decrease” and the “p-MEK, p-ERK and p-RSK levels” value (PI3K-related pathways; Patient 5, Day 8 of therapy) was “Little change”. The “P-AKT and p-RAS” value (PI3K-related pathways; Patient 5, on therapy) was “slightly upregulated” and the p-RPS6 (PI3K-related pathways; Patient 5, on therapy) was “highly upregulated”.

For `CS(=O)(=O)N1CCN(Cc2cc3nc(-c4cccc5[nH]ncc45)nc(N4CCOCC4)c3s2)CC1` [GDC0941], the “IC50 values compared with cell lines with PTEN wild-type status” value [1] was “higher”, the IC50 (Calu-6) was “high” and the IC50 (H2087) was “low”. The IC50 (H1651) was “low”.

In the case of `CS(=O)(=O)CCNCc1ccc(-c2ccc3ncnc(Nc4ccc(OCc5cccc(F)c5)c(Cl)c4)c3c2)o1` [Lapatinib, lapatinib], the response to treatment [2] is reported as “responded to treatment” and the “PI3K activation as well as HER2 and IGF1R activation” value [3] is reported as “decreased”.
